Data: PMC7226045, “Ensartinib (X-396) Effectively Modulates Pharmacokinetic Resistance Mediated by ABCB1 and ABCG2 Drug Efflux Transporters and CYP3A4 Biotransformation Enzyme” (Cancers, 2020)

Experiments:
CYP2B6 = biological target: T1, CYP2B6 (Homo sapiens, UniProt P20813); test: Vivid CYP screening kit, recombinant CYP2B6; assay type: biochemical; details: recombinant enzyme
T1 construct: purchased Thermo Fisher Scientific; host or cells: insect microsomal fractions
Procedure: CYP inhibitory assay was performed as described previously. Experiments were performed with commercial Vivid CYP screening kits containing insect microsomal fractions enriched with a specific human CYP isoform, human CYP reductase, and in some cases, human cytochrome b5. The potential inhibitory activity of ensartinib toward CYP1A2, CYP2B6, CYP2C8, CYP2C9, CYP2C19, CYP2D6, CYP3A4, and CYP3A5 (i.e., all CYP isoforms that drug regulatory authorities recommend for testing of inhibition by new molecular entities) was then examined. Experiments were performed using a kinetic mode in black 96-well plates according to the manufacturer´s instructions. Briefly, 5-point serial dilutions of ensartinib or the model inhibitor recommended by the manufacturer in buffer were transferred into the wells, then a master mix consisting of a CYP isoenzyme with an NADPH regeneration system in buffer was added. After a 10 min pre-incubation, the reaction was initiated by adding a mixture of NADP^+ and the appropriate Vivid substrate, after which fluorescence was measured at 1 min intervals for 60 min using an Infinite M200 Pro microplate reader (Tecan, Männedorf, Switzerland). The enzyme concentration and incubation interval used for data evaluation (15 min) placed the systems within the linear regions of the appropriate reaction velocity curves. […]

[1] = MTT proliferation / drug combination assay, MDCKII-ABCB1; details: dog, MDCKII-ABCB1 cells
Procedure: (§1) MTT proliferation assay was performed as described previously. Cells were seeded on a 96-well culture plate at densities (in units of cells/well) of 1.3 × 10^4 for MDCKII-par, MDCKII-ABCB1, MDCKII-ABCG2, and MDCKII-ABCC1; 1.2 × 10^4 for A431-par, A431-ABCB1, A431-ABCG2 and A431-ABCC1; 1.2 × 10^4 for NCI-H1299; 2.0 × 10^4 for Caco-2; 5.0 × 10^4 for LS174T; and 6.0 × 10^4 for HepG2-CYP3A4 and HepG2-EV. After seeding, the cells were cultured for 24 h, then the media was removed and the cells were treated with serial dilutions of a drug or drug combination for 48 h. Vehicles containing media and 40% DMSO in media served as 100% and 0% viability controls, respectively. Upon completion of the 48 h period, the cells were washed once with 1× PBS, the media was replaced with an MTT solution in Opti-MEM (1 mg/mL), and the cells were incubated under standard conditions for 60 min. MTT solution was carefully removed and the resulting formazan crystals were immediately solubilized in DMSO. The cells were then shaken gently for 10 min, after which absorbance of their lysate was measured at 570 nm and 690 nm using a microplate reader (Infinite M200, Tecan, Salzburg, Austria); background values obtained at 690 nm were subtracted from the measurements obtained at 570 nm. This method was used to assess the effect of ABC transporters on sensitivity to ensartinib, in drug combination assays, and to identify drug concentrations appropriate for use in induction studies.
(§2) Experiments focusing on the modulation of ABC transporter-mediated resistance were performed as described previously. The parent MDCKII and HL60 cells and their ABCB1-, ABCG2-, and ABCC1-overexpressing counterparts were seeded at the densities specified above onto 96-well culture plates and cultured for 24 h. The medium was subsequently replaced with serial dilutions of ensartinib alone or with various concentrations of a model MDR-susceptible cytostatic agent (daunorubicin or mitoxantrone) with or without 10 µM ensartinib. After 48 h incubation, the cells’ viability was determined as described above. In addition to performing IC50-shift analyses, the viability measurements were converted to FA (fraction of cells affected) values and the effects of drug combinations were quantified using the Chou-Talalay combination index (CI) method as implemented in CompuSyn 3.0.1 (ComboSyn Inc., Paramus, NJ, USA). The effects of concomitantly administered drugs were classified as synergistic (CI < 0.9), additive (0.9 < CI < 1.1), or antagonistic (CI > 1.1) based on the computed CI values.

MDCKII-ABCB1 cells = test: as above; details: MDCKII-ABCB1
Procedure: as §1, §2

[2] = MTT proliferation / drug combination assay, MDCKII-ABCG2; assay type: cell-based, canine; details: dog, MDCKII-ABCG2 cells, 48 h, MTT, read-out: IC50, sensitivity to ensartinib
Procedure: (§3) MTT proliferation assay was performed as described previously.

MDCKII-ABCG2 cells = test: as above; assay type: cell-based, canine
Procedure: as §3

MDCKII-ABCC1 cells = test: MTT proliferation assay, MDCKII-ABCC1; assay type: cell-based, canine; details: Canis lupus familiaris, 48 h, read-out: IC50, sensitivity to ensartinib
Procedure: as §3

A431-parent cells = test: MTT proliferation assay, A431-parent; assay type: cell-based; details: Homo sapiens, 48 h, read-out: IC50, sensitivity to ensartinib
Procedure: as §3

T1 sequence (P20813 whole entry): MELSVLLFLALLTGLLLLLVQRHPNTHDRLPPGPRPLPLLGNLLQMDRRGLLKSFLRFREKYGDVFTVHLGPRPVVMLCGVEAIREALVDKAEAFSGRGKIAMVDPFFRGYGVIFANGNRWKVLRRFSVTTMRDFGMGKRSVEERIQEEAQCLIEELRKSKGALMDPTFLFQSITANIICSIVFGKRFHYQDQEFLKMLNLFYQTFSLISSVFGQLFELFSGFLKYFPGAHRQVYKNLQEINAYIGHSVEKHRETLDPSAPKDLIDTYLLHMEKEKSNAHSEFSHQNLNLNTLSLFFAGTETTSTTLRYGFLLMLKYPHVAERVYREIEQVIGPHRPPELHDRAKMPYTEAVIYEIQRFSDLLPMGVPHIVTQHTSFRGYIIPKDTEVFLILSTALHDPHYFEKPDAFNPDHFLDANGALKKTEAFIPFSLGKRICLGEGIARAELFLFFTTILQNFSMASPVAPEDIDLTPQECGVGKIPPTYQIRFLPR

## C[C@@H]1CN(C(=O)c2ccc(NC(=O)c3cc(O[C@H](C)c4c(Cl)ccc(F)c4Cl)c(N)nn3)cc2)C[C@H](C)N1 [ensartinib, Ensartinib]
CYP2B6
  inhibitory effect on CYP2B6 (in words): no appreciable inhibitory effect
CYP2B6; 15 min incubation, absolute IC50, read-out: CYP2B6 inhibition IC50
  IC50: > 50 µM
[1]
  IC50 at 48 h: 23.9 µM
MDCKII-ABCB1 cells; 10 µM ensartinib with daunorubicin
  combination effect (Chou-Talalay combination index): synergistic (synergistic (CI < 0.9))
MDCKII-ABCB1 cells; daunorubicin, IC50 single drug / IC50 combined with 10 µM ensartinib
  RR (reversal ratio): 11.2
[2]
  IC50 at 48 h: 23.3 µM
MDCKII-ABCG2 cells; 10 µM ensartinib with mitoxantrone
  combination effect (Chou-Talalay combination index): synergistic (synergistic (CI < 0.9))
MDCKII-ABCG2 cells; mitoxantrone, IC50 single drug / IC50 combined with 10 µM ensartinib
  RR (reversal ratio): 6.16
MDCKII-ABCC1 cells
  IC50: 21.9 µM
A431-parent cells
  IC50: 2.69 µM
